US10632119B2, “Fused bicyclic 2,4-diaminopyrimidine derivative as a dual ALK and FAK inhibitor” (priority 2012, dated 2020)
pIC50, pKi: −log10 of the molar value. ≈ marks a conversion by molar mass, not a printed value. Where two headings read alike, the source gives them in different places.

Assays:
[1] = system: NCI-H3122 NSCLC tumor xenografts; experiment: Anti-tumor activity, EML4-ALK positive NCI-H3122 NSCLC xenograft; conditions: for anti-tumor efficacy: 12 days
Description: (§1) Anti-Tumor Activity in EML4-ALK Positive (NCI-H2228 and NCI-H3122) NSCLC Tumor Xenografts in Mice with Oral Dosing
(§2) Generation of EML4-ALK-positive and EML4-ALK-negative NSCLC Subcutaneous Tumor Xenografts in Scid Mice Female Scid/Beige mice (6-8 weeks, Taconic, Hudson. N.Y.) were maintained 5/cage in microisolator units on a standard laboratory diet (Teklad Labchow, Harlan Teklad, Madison, Wis.). Animals were housed under humidity- and temperature controlled conditions and the light/dark cycle was set at 12-hour intervals. Mice were quarantined at least 1 week prior to experimental manipulation. […] The mice were monitored until the tumor xenograft volumes reached 200-500 mm3.
(§3) The length (L) and width (W) of each tumor were measured with vernier calipers and the mouse body weight was determined every two to three days. […] Percent tumor growth inhibition (% TGI) was calculated as follows: (tumor volume of the control group at end of treatment—tumor volume of the treated group at the end of treatment)/tumor volume of the control group at the end of treatment. […] Complete tumor regression (CR) was defined as the tumor volume of the treated group at the end of treatment being less than 5% of the tumor volume of the treated group as the start of treatment. Statistical analyses of tumor volumes and mouse body weights were carried out with the Mann-Whitney Rank Sum Test. Plasma and tumor samples were obtained at 2 hours post final dose at each dose level, and the compound levels in plasma and tumor lysates were measured by LC-MS/MS

[2] = system: NCI-H2228 NSCLC tumor xenografts; experiment: Anti-tumor activity, EML4-ALK positive NCI-H2228 NSCLC xenograft; conditions: for anti-tumor efficacy: 12 days
Description: as §1, §2, §3

[3] = target: CYP 2D6 (Homo sapiens, UniProt P10635); experiment: CYP inhibition; assay type: in vitro ADME
[4] = target: T1, ALK (Homo sapiens, UniProt Q9UM73); experiment: ALK enzymatic assay; assay type: biochemical
Target sequence in this assay (Q9UM73 19-1620): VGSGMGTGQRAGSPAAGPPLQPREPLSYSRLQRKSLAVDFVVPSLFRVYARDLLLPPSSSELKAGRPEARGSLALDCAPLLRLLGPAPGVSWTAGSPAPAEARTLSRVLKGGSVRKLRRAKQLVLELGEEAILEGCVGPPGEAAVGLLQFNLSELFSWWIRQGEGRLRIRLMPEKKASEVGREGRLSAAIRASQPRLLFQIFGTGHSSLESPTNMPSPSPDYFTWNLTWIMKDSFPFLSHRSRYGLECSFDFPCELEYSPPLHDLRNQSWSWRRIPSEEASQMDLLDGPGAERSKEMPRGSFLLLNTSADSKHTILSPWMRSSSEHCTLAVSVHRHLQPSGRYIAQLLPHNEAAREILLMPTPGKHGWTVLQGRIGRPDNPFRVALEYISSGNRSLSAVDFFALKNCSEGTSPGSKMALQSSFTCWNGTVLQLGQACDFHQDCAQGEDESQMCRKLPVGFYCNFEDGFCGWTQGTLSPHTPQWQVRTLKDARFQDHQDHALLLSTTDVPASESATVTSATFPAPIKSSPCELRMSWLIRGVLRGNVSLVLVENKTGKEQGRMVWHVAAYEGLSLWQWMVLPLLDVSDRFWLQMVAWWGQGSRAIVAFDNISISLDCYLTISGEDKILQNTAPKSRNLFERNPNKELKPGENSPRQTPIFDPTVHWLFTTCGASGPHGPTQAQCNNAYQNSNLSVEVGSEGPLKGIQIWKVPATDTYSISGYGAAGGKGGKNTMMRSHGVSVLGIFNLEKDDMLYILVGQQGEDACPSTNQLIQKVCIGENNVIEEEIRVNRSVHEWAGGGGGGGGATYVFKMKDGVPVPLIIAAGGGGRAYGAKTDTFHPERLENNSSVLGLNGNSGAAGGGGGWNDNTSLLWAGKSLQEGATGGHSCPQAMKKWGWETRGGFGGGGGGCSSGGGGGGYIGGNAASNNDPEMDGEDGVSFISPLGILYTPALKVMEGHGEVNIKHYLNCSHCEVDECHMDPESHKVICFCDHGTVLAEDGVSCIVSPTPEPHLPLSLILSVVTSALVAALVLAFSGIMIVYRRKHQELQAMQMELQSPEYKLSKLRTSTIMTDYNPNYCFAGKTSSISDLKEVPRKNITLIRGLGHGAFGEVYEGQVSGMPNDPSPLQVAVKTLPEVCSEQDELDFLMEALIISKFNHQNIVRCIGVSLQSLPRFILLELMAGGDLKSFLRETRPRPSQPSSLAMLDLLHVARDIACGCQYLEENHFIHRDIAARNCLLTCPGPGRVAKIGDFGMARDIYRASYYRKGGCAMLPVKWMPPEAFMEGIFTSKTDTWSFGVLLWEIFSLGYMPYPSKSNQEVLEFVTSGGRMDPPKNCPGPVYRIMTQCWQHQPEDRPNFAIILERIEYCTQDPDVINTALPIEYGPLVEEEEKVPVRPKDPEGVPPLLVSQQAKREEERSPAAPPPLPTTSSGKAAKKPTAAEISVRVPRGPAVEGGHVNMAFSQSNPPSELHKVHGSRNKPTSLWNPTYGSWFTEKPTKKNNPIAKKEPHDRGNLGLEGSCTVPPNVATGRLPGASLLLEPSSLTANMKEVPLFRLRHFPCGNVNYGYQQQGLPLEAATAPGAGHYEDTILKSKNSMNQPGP

[5] = target: CYP 1A2 (Homo sapiens, UniProt P05177); experiment: CYP inhibition; assay type: in vitro ADME
[6] = target: T2, FAK (Homo sapiens, UniProt Q05397); experiment: FAK enzymatic assay; assay type: biochemical
[7] = In vitro metabolic stability, human; assay type: in vitro ADME; conditions: human (H); read-out: In vitro metabolic stability t1/2
[8] = Monkey bioavailability; conditions: in vivo, po
[9] = target: CYP 2C9 (Homo sapiens, UniProt P11712); experiment: CYP inhibition; assay type: in vitro ADME
[10] = in vivo
Description: One additional group of 20 animals/sex served as the control and received the vehicle, distilled water. The drug or vehicle was administered to all groups via oral gavage, once a day for 91 consecutive days, at a dose volume of 10 mL/kg/dose. Following the dosing period, five animals/sex/group were maintained for a 4-week recovery period. Additionally, one group of three animals/sex and three groups of nine animals/sex/group served as toxicokinetic (TK) animals and received the vehicle or drug in the same manner and at the same dose levels as the main study groups.
Observations for morbidity, mortality, injury, and the availability of food and water were conducted at least twice daily for all animals. Clinical observations were conducted on main study animals weekly. Body weights were measured and recorded for all animals prior to initiation of dosing (week −1) and weekly during the study. Food consumption was measured and recorded for main study animals weekly. Ophthalmoscopic examinations were conducted on main study animals pretest and prior to the terminal and recovery necropsies. Blood samples for designated clinical pathology evaluations were collected from main study animals at the end of week 4 and at the terminal and recovery necropsies. Urine samples for urinalysis evaluations were collected from main study animals prior to the terminal and recovery necropsies. Blood samples for determination of the plasma concentrations of the drug were collected from designated TK animals at designated time points on day 1, week 4, and week 13. After the final blood collection, the TK animals were euthanized and the carcasses were discarded. At the end of the terminal and recovery periods, necropsy examinations were performed, organ weights were recorded, and selected tissues were microscopically examined.

[11] = target: T1, ALK; experiment: ALK cellular assay; assay type: cell-based
Target sequence in this assay (Q9UM73 with tags, fused parts or gaps): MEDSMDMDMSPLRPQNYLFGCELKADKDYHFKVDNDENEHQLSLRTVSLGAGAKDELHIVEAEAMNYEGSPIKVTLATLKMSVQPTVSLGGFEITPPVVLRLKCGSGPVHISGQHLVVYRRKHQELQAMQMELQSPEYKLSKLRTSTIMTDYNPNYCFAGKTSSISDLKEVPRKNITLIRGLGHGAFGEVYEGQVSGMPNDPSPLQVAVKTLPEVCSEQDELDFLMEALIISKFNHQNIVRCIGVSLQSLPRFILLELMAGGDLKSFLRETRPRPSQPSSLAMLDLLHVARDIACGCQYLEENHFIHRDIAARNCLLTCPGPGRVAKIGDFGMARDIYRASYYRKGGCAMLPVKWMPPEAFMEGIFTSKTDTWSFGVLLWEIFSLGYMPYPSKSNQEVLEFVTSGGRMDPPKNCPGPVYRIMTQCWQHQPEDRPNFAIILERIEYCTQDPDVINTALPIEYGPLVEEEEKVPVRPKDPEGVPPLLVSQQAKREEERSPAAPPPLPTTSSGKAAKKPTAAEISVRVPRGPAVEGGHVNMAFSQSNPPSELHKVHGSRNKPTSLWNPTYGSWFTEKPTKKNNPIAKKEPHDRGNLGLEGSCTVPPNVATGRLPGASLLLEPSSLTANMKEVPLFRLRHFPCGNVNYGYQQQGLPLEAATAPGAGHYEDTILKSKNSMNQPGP

[12] = target: IR (Homo sapiens, UniProt P06213); experiment: biochemical
[13] = Protein binding, mouse; assay type: in vitro ADME; conditions: mouse (M)
[14] = Mouse bioavailability; assay type: in vivo; conditions: CEP-37440 as amorphous HCl salt
[15] = Description: Five animals/sex were assigned to each dose group and were given daily oral doses of 0 (vehicle), 20, 40 or 80 mg/kg for up to 91 days. […] Three animals/sex/group were scheduled for termination at the end of the dosing period (Day 92) and two animals/sex/group were assigned to a 6-week non-dosing recovery phase and were terminated on Day 134.
Urine samples for urinalysis only were obtained by bladder puncture during necropsy. Urine samples for urinalysis and urine chemistry analysis were also obtained by drainage from special stainless-steel cage pans in Weeks −1, 1, 4, and 13, and from the remaining animals near the end of the recovery period.
Blood samples were collected for toxicokinetic analysis at various time points on Day 1 and during Weeks 4 and 13. […] At termination, a full necropsy was conducted on all animals, and tissues were collected, preserved, processed, and examined microscopically by a Veterinary Pathologist certified by the American College of Veterinary Pathologists.

[16] = remark: listed apart in the source
Description: The following parameters and end points were evaluated in this study: clinical signs (mortality/moribundity checks, cage side observations and food consumption, and postdose observations), body weights, veterinary physical examinations, lung evaluations, ophthalmology, electrocardiography, blood pressure and heart rate measurements, clinical pathology parameters (hematology, coagulation, clinical chemistry, urinalysis, urine chemistry, and troponin I analysis), toxicokinetic parameters, gross necropsy findings, organ weights, and histopathologic examinations.

[17] = target: Adrenergic α1B (R) (Rattus norvegicus, UniProt P15823); experiment: Receptor selectivity (Cerep); assay type: binding
[18] = target: hERG (Homo sapiens, UniProt Q12809); experiment: hERG patch clamp; assay type: cell-based
[19] = In vitro metabolic stability, rat; assay type: in vitro ADME; conditions: rat (R); read-out: In vitro metabolic stability t1/2
[20] = target: Adrenergic α1D (H) (Homo sapiens, UniProt P25100); experiment: Receptor selectivity (Cerep); assay type: binding
[21] = In vitro metabolic stability, mouse; assay type: in vitro ADME; conditions: mouse (M); read-out: In vitro metabolic stability t1/2
[22] = target: T2, FAK; experiment: FAK cellular assay; assay type: cell-based
[23] = system: CYP3A4; experiment: CYP3A4 induction in vitro
[24] = Equilibrium solubility; assay type: physicochemical; conditions: thermodynamic from solid
[25] = Protein binding, dog; assay type: in vitro ADME; conditions: dog (D)
[26] = Rat bioavailability; conditions: in vivo
[27] = Protein binding, human; assay type: in vitro ADME; conditions: human (H)
[28] = Caco-2 permeability; assay type: in vitro ADME; conditions: human
[29] = In vitro metabolic stability, dog; assay type: in vitro ADME; conditions: dog (D); read-out: In vitro metabolic stability t1/2
[30] = In vitro metabolic stability, monkey; assay type: in vitro ADME; conditions: monkey (Mo); read-out: In vitro metabolic stability t1/2
[31] = target: CYP 2C19 (Homo sapiens, UniProt P33261); experiment: CYP inhibition; assay type: in vitro ADME

T2 sequence (Q05397 whole entry): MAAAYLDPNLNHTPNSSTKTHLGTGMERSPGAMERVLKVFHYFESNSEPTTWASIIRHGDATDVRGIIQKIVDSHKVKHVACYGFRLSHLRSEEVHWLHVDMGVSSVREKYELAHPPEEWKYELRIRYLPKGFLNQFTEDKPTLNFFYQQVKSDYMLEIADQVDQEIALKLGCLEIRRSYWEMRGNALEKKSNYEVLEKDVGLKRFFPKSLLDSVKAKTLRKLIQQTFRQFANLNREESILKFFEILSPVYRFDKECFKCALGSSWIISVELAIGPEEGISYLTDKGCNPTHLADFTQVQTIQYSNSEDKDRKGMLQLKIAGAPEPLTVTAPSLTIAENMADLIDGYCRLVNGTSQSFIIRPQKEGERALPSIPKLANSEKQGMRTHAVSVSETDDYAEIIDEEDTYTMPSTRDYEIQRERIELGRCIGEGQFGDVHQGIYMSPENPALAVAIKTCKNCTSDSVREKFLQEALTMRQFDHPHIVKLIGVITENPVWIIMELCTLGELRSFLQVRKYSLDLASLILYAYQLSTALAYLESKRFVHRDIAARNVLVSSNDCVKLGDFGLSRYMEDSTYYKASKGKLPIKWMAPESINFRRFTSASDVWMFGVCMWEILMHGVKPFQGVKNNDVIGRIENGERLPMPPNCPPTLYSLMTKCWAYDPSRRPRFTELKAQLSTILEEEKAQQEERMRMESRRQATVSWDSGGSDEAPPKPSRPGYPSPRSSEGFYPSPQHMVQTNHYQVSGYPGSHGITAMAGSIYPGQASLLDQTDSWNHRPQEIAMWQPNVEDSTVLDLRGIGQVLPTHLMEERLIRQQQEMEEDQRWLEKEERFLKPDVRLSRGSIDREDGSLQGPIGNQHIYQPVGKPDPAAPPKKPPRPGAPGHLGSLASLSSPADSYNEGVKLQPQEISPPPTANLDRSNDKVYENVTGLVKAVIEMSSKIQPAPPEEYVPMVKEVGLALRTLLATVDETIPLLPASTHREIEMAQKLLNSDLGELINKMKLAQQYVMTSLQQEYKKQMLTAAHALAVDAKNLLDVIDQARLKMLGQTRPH
Chain of Adrenergic α1D (H) (P25100 whole entry): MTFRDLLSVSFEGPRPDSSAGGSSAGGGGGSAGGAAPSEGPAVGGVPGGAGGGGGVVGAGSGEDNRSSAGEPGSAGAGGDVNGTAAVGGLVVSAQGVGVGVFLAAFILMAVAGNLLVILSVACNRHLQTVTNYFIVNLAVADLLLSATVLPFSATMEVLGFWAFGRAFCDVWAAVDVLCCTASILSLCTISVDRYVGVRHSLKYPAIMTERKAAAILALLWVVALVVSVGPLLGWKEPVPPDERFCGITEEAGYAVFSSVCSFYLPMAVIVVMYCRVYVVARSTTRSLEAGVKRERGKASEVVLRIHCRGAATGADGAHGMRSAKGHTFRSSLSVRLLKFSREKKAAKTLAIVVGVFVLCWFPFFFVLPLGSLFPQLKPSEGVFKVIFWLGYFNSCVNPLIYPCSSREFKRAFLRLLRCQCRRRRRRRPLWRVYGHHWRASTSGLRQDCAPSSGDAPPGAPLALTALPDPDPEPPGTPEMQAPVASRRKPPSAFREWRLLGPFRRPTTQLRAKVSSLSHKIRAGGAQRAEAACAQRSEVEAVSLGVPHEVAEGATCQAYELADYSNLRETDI
Chain of Adrenergic α1B (R) (P15823 whole entry): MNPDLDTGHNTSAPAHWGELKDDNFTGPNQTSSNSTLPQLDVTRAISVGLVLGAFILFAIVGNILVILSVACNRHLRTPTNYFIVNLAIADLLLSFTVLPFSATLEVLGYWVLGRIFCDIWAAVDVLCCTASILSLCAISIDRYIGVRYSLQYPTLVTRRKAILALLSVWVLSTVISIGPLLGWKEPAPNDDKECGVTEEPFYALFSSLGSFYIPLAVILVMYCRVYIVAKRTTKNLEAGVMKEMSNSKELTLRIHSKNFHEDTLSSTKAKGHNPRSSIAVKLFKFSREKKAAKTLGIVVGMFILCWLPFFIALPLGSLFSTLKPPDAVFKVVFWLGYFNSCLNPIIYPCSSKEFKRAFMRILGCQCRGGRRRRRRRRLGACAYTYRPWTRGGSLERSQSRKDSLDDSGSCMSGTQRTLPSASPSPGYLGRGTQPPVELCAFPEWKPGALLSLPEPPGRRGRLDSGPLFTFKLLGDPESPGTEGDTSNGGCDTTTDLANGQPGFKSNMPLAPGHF
Chain of CYP 1A2 (P05177 whole entry): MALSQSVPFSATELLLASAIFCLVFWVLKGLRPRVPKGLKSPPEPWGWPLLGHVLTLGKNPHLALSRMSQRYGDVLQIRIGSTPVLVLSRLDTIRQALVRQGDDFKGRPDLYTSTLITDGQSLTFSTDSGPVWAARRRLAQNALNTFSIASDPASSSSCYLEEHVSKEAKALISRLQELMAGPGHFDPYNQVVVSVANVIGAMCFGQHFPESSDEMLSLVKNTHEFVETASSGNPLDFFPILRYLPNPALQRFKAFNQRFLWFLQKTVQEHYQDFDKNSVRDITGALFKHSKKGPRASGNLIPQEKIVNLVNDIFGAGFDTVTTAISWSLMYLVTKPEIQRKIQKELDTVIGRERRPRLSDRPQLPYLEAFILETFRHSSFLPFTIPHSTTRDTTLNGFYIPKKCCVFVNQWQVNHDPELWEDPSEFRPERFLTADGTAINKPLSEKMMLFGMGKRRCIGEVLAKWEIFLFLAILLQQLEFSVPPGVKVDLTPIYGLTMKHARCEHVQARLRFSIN

Question: For `CNC(=O)c1ccccc1Nc1nc(Nc2ccc3c(c2OC)CCCC(N2CCN(CCO)CC2)C3)ncc1Cl.Cl` (centres unmarked) [CEP-37440 (HCl salt), 2-(5-Chloro-2-{6-[4-(2-hydroxy-ethyl)-piperazin-1-yl]-1-methoxy-6,7,8,9-tetrahydro-5H-benzocyclohepten-2-ylamino}-pyrimidin-4-ylamino)-N-methyl-benzamide hydrochloride], which anti-tumor efficacy ([1]; 30 mg/kg bid po) is on record?
Answer: Its anti-tumor efficacy is “tumor stasis and partial regressions”.

Question: And the anti-tumor efficacy ([1]; 55 mg/kg qd po)?
Answer: The anti-tumor efficacy was “tumor stasis and partial regressions”.

Question: And the “tolerability, body weight” value ([1]; 12 days treatment)?
Answer: Its value is “well tolerated with no overt toxicity or compound-related weight loss (FIGS. 14 and 15), except at 30 mg/kg, bid dose”.

Question: What about the anti-tumor efficacy ([2]; 30 mg/kg bid po) of the same compound?
Answer: The anti-tumor efficacy was “tumor regressions”.

Question: What about the anti-tumor efficacy ([2]; 30 mg/kg, qd, po) of the same compound?
Answer: Its anti-tumor efficacy is “tumor regressions”.

Question: What about the anti-tumor efficacy ([2]; 55 mg/kg qd po) of the same compound?
Answer: The anti-tumor efficacy was “tumor regressions”.

Question: What about the “tolerability, body weight” value ([2]; 12 days treatment) of the same compound?
Answer: Its value is “well tolerated with no overt toxicity or compound-related weight loss”.

Question: With `COc1c(Nc2ncc(Cl)c(N[C@H]3[C@@H](C(N)=O)[C@@H]4C=C[C@H]3C4)n2)ccc2c1CC[C@@H](N1CCOCC1)CC2` [CEP-28122, (1 S,2S,3R,4R)-3-[5-chloro-2-((S)-1-methoxy-7-morpholin-4-yl-6,7,8,9-tetrahydro-5H-benzocyclohepten-2-ylamino)-pyrimidin-4-ylamino]-bicyclo[2.2.1]hept-5-ene-2-carboxylic acid amide] as the compound, how does the pIC50 [3] read?
Answer: Its pIC50 is 4.76.

Question: What about the pIC50 [4] of the same compound?
Answer: Its pIC50 is 8.52.

Question: And the pIC50 [5]?
Answer: The pIC50 was under 4.52.

Question: And the pIC50 [6]?
Answer: Its pIC50 is 7.53.

Question: And the half-life [7]?
Answer: The half-life was 10.3 min.

Question: And the bioavailability ([8]; 10 mg/kg)?
Answer: The bioavailability was 16%.

Question: And the bioavailability ([8]; 30 mg/kg)?
Answer: Its bioavailability is 37%.

Question: What about the pIC50 [9] of the same compound?
Answer: The pIC50 was 5.89.

Question: What about the drug-related deaths ([10]; 30, 75, 150 mg/kg/day oral, 91 days) of the same compound?
Answer: The drug-related deaths was “no drug-related deaths”.

Question: And the “dosages with adverse histopathological effects in the kidney persisting through 4-week recovery” value ([10]; both, Sprague-Dawley, rat, in vivo, po, 91 days)?
Answer: The value was at least 75 mg/kg/day.

Question: And the NOAEL at 91 days ([10]; both, rat, in vivo, po)?
Answer: The NOAEL at 91 days was 30 mg/kg/day.

Question: What about the pIC50 ([11]; 75% human plasma, read-out: ALK cellular IC50 in 75% human plasma) of the same compound?
Answer: The pIC50 was 6.52.

Question: And the pIC50 ([11]; 75% murine plasma, read-out: ALK cellular IC50 in 75% murine plasma)?
Answer: The pIC50 was 6.52.

Question: What about the pIC50 ([11]; read-out: ALK cellular IC50) of the same compound?
Answer: The pIC50 was 7.52.

Question: And the pIC50 [12]?
Answer: Its pIC50 is 6.00.

Question: What about the Protein binding [13] of the same compound?
Answer: The Protein binding was 95 % bound.

Question: What about the Mouse bioavailability ([14]; CD-1 mouse) of the same compound?
Answer: Its Mouse bioavailability is 51%.

Question: What about the Mouse bioavailability ([14]; Scid mouse) of the same compound?
Answer: The Mouse bioavailability was 71%.

Question: And the animals with seizures ([15]; 80 mg/kg, Days 9 and/or 10)?
Answer: Its animals with seizures is 2 animals.

Question: What about the “lung gross and histologic findings, early death animals” value ([15]; 20, 40, 80/60 mg/kg) of the same compound?
Answer: Its value is “pulmonary edema was identified in all dose groups”.

Question: What about the morbidity and mortality ([15]; 20, 40, 80/60 mg/kg daily, 91 days) of the same compound?
Answer: Its morbidity and mortality is “morbidity and mortality in two animals dosed with 80/60 mg/kg and likely two additional animals”.

Question: And the hematology changes ([15]; 80/60 mg/kg, from Day 28, returned to baseline by end of recovery)?
Answer: Its hematology changes is “decrease in lymphocytes”.

Question: And the “liver enzymes in surviving animals” value ([15]; 80/60 mg/kg, returned to baseline by end of recovery)?
Answer: The value was “increased alanine aminotransferase (ALT) and aspartate aminotransferase (AST)”.

Question: And the morbidity or mortality ([16]; 3, 10, 20, 40 mg/kg/day oral, 4 weeks)?
Answer: Its morbidity or mortality is “did not result in any morbidity or mortality”.

Question: And the “dose levels with vacuolated cells in the lungs still present after 4-week recovery” value ([16]; both, cynomolgus monkey, in vivo)?
Answer: The value was at least 20 mg/kg/day.

Question: And the “dose levels with histological effects in the lung (vacuolated cells, increased lung weight)” value ([16]; both, cynomolgus monkey, in vivo, po, 4 weeks)?
Answer: The value was at least 10 mg/kg/day.

Question: What about the pKi [17] of the same compound?
Answer: The pKi was 5.66.

Question: And the pIC50 [18]?
Answer: Its pIC50 is under 5.00.

Question: And the half-life [19]?
Answer: The half-life was 6.7 min.

Question: And the pKi [20]?
Answer: Its pKi is 5.96.

Question: And the half-life [21]?
Answer: The half-life was 13.2 min.

Question: And the pIC50 [22]?
Answer: The pIC50 was 6.03.

Question: What about the “CYP3A4 induction in vitro” value ([23]; @ 0.3 μM) of the same compound?
Answer: Its value is 0.95 fold.

Question: What about the “CYP3A4 induction in vitro” value ([23]; @ 3.0 μM) of the same compound?
Answer: Its value is 1.3 fold.

Question: And the solubility thermodynamic ([24]; pH 2, simulated gastric fluid, read-out: Equilibrium solubility at pH 2)?
Answer: The solubility thermodynamic was over 3000 µg/mL.

Question: What about the solubility thermodynamic ([24]; pH 7.4, aqueous buffer, read-out: Equilibrium solubility at pH 7.4) of the same compound?
Answer: Its solubility thermodynamic is 13 µg/mL (≈ 24.1 µM).

Question: And the Protein binding [25]?
Answer: The Protein binding was 96 % bound.

Question: What about the Rat bioavailability [26] of the same compound?
Answer: Its Rat bioavailability is 25%.

Question: And the Protein binding [27]?
Answer: The Protein binding was 99.2 % bound.

Question: And the Papp [28]?
Answer: The Papp was 12.6 ×10⁻⁶ cm/s.

Question: And the half-life [29]?
Answer: The half-life was 19.9 min.

Question: What about the half-life [30] of the same compound?
Answer: The half-life was under 5 min.

Question: What about the pIC50 [31] of the same compound?
Answer: Its pIC50 is 5.17.
